Measurements reported in patent US20240366567A1, “PHARMACEUTICAL COMBINATIONS COMPRISING A KRAS G12C INHIBITOR AND USES THEREOF FOR THE TREATMENT OF CANCERS” (NOVARTIS AG, priority 2021, published 2024).

How the values were obtained:
[1] = system: KRAS G12C, PIK3CA and CDKN2A-mutated LU99 xenograft; experiment: LU99 xenograft, single agent and double, triple, quadruple combinations (Example 8); assay type: in vivo, mice; details: 7.5 mg/kg daily
[2] = system: KRAS G12C and CDKN2A-mutated LU99 xenograft; experiment: LU99 xenograft, Compound A with ribociclib (Example 7); assay type: in vivo; details: LU99 xenograft in mice

Row | Compound | effect on tumor growth compared to the vehicle group [1] | effect on tumor growth [2]
1 | C[C@@H]1OCC2(CCN(c3cnc(Sc4ccnc(N)c4Cl)c(N)n3)CC2)[C@@H]1N [TNO155, (3S,4S)-8-(6-amino-5-((2-amino-3-chloropyridin-4-yl)thio)pyrazin-2-yl)-3-methyl-2-oxa-8-azaspiro[4.5]decan-4-amine, reference compound] | did not have any effect on tumor growth | –
2 | CN(C)C(=O)c1cc2cnc(Nc3ccc(N4CCNCC4)cn3)nc2n1C1CCCC1 [ribociclib, reference compound] | – | did not have any effect on tumor growth
